Key:
[1] = biological target: T1, HCV NS5B RdRp genotype 1b (Hepatitis C virus genotype 1b, UniProt Q9WMX2); assay: HCV NS5B RdRp enzyme assay (standard / modified); assay type: biochemical; details: HCV NS5B genotype 1b
T1 construct: The protein was expressed with an 18 amino acid C-terminal truncation to enhance the solubility; made in house; host or cells: E. coli BL21(DE3), pET21a vector
Procedure: HCV NS5B RdRp cloning, expression, and purification. The cDNA encoding the NS5B protein of HCV, genotype 1b, was cloned into the pET21a expression vector. The protein was expressed with an 18 amino acid C-terminal truncation to enhance the solubility. The E. coli competent cell line BL21(DE3) was used for expression of the protein. Cultures were grown at 37° C. for ˜4 hours until the cultures reached an optical density of 2.0 at 600 nm. The cultures were cooled to 20° C. and induced with 1 mM IPTG. Fresh ampicillin was added to a final concentration of 50 μg/ml and the cells were grown overnight at 20° C.
Cell pellets (3 L) were lysed for purification to yield 15-24 mgs of purified NS5B. The lysis buffer consisted of 20 mM Tris-HCl, pH 7.4, 500 mM NaCl, 0.5% triton X-100, 1 mM DTT, 1 mM EDTA, 20% glycerol, 0.5 mg/ml lysozyme, 10 mM MgCl2, 15 ug/ml deoxyribonuclease I, and Complete™ protease inhibitor tablets (Roche). After addition of the lysis buffer, frozen cell pellets were resuspended using a tissue homogenizer. To reduce the viscosity of the sample, aliquots of the lysate were sonicated on ice using a microtip attached to a Branson sonicator. The sonicated lysate was centrifuged at 100,000×g for 1 hr at 4° C. and filtered through a 0.2 μm filter unit (Corning).
The protein was purified using three sequential chromatography steps: Heparin sepharose CL-6B, polyU sepharose 4B, and Hitrap SP sepharose (Pharmacia). The chromatography buffers were identical to the lysis buffer but contained no lysozyme, deoxyribonuclease I, MgCl2 or protease inhibitor and the NaCl concentration of the buffer was adjusted according to the requirements for charging the protein onto the column. Each column was eluted with a NaCl gradient which varied in length from 5-50 column volumes depending on the column type. After the final chromatography step, the resulting purity of the enzyme is >90% based on SDS-PAGE analysis. The enzyme was aliquoted and stored at −80° C.
Standard HCV NS5B RdRp enzyme assay. HCV RdRp genotype 1b assays were run in a final volume of 60 μl in 96 well plates (Costar 3912). The assay buffer is composed of 20 mM Hepes, pH 7.5, 2.5 mM KCl, 2.5 mM MgCl2, 1 mM DTT, 1.6 U RNAse inhibitor (Promega N2515), 0.1 mg/ml BSA (Promega R3961), and 2% glycerol. All compounds were serially diluted (3-fold) in DMSO and diluted further in water such that the final concentration of DMSO in the assay was 2%. HCV RdRp genotype 1b enzyme was used at a final concentration of 28 nM. A polyA template was used at 6 nM, and a biotinylated oligo-dT12 primer was used at 180 nM final concentration. Template was obtained commercially (Amersham 27-4110). Biotinylated primer was prepared by Sigma Genosys. 3H-UTP was used at 0.6 μCi (0.29 μM total UTP). Reactions were initiated by the addition of enzyme, incubated at 30° C. for 60 min, and stopped by adding 25 μl of 50 mM EDTA containing SPA beads (4 μg/μl, Amersham RPNQ 0007). Plates were read on a Packard Top Count NXT after >1 hr incubation at room temperature.
Modified HCV NS5B RdRp enzyme assay. A modified enzyme assay was performed essentially as described for the standard enzyme assay except for the following: The biotinylated oligo dT12 primer was precaptured on streptavidin-coated SPA beads by mixing primer and beads in assay buffer and incubating at room temperature for one hour. Unbound primer was removed after centrifugation. The primer-bound beads were resuspended in 20 mM Hepes buffer, pH 7.5 and used in the assay at final concentrations of 20 nM primer and 0.67 μg/μl beads. Order of addition in the assay: enzyme (14 nM) was added to diluted compound followed by the addition of a mixture of template (0.2 nM), 3H-UTP (0.6 μCi, 0.29 μM), and primer-bound beads, to initiate the reaction; concentrations given are final. Reactions were allowed to proceed for 4 hours at 30° C.
IC50 values for compounds were determined using seven different [I]. […]

HCV replicon cells = assay: HCV replicon assay (FRET or luciferase readout); assay type: cell-based; details: Hepatitis C virus
Text: FRET Assay Preparation. To perform the HCV FRET screening assay, 96-well cell culture plates were used. The FRET peptide (Anaspec, Inc.) (Taliani et al., Anal. Biochem. 1996, 240, 60-67) contains a fluorescence donor, EDANS, near one end of the peptide and an acceptor, DABCYL, near the other end. The fluorescence of the peptide is quenched by […] resonance energy transfer (RET) between the donor and the acceptor, but as the NS3 protease cleaves the peptide the products are released from RET quenching and the fluorescence of the donor becomes apparent. The assay reagent was made as follows: 5× cell Luciferase cell culture lysis reagent from Promega (#E153A) diluted to 1× with dH2O, NaCl added to 150 mM final, the FRET peptide diluted to 20 μM final from a 2 mM stock.
To prepare plates, HCV replicon cells, with or without a Renilla luciferase reporter gene, were trypsinized and placed into each well of a 96-well plate with titrated test compounds added in columns 3 through 12; columns 1 and 2 contained a control compound (HCV protease inhibitor), and the bottom row contained cells without compound. The plates were then placed in a CO2 incubator at 37° C.
Assays. Subsequent to addition of the test compounds described above (FRET Assay Preparation), at various times the plate was removed and Alamar blue solution (Trek Diagnostics, #00-100) was added per well as a measure of cellular toxicity. After reading in a Cytoflour 4000 instrument (PE Biosystems), plates were rinsed with PBS and then used for FRET assay by the addition of 30 ul of the FRET peptide assay reagent described above (FRET Assay Preparation) per well. The plate was then placed into the Cytoflour 4000 instrument which had been set to 340 excite/490 emission, automatic mode for 20 cycles and the plate read in a kinetic mode. Typically, the signal to noise using an endpoint analysis after the reads was at least three-fold. Alternatively, after Alamar blue reading, plates were rinsed with PBS, 50 ul of DMEM (high glucose) without phenol red was added and plates were then used for luciferase assay using the Promega Dual-Glo Luciferase Assay System.
Compound analysis was determined by quantification of the relative HCV replicon inhibition and the relative cytotoxicity values. To calculate cytoxicity values, the average Alamar Blue fluorescence signals from the control wells were set as 100% non-toxic. The individual signals in each of the compound test wells were then divided by the average control signal and multiplied by 100% to determine […]. To calculate the HCV replicon inhibition values, an average background value was obtained from the two wells containing the highest amount of HCV protease inhibitor at the end of the assay period. These numbers were similar to those obtained from naïve Huh-7 cells.
The background numbers were then subtracted from the average signal obtained from the control wells and this number was used as 100% activity. The individual signals in each of the compound test wells were then divided by the averaged control values after background subtraction and multiplied by 100% to determine percent activity. EC50 values for a protease inhibitor titration were calculated as the concentration which caused a 50% reduction in FRET or luciferase activity. The two numbers generated for the compound plate, percent cytoxicity and percent activity were used to determine compounds of interest for further analysis.

T1 sequence (Q9WMX2 2420-2992): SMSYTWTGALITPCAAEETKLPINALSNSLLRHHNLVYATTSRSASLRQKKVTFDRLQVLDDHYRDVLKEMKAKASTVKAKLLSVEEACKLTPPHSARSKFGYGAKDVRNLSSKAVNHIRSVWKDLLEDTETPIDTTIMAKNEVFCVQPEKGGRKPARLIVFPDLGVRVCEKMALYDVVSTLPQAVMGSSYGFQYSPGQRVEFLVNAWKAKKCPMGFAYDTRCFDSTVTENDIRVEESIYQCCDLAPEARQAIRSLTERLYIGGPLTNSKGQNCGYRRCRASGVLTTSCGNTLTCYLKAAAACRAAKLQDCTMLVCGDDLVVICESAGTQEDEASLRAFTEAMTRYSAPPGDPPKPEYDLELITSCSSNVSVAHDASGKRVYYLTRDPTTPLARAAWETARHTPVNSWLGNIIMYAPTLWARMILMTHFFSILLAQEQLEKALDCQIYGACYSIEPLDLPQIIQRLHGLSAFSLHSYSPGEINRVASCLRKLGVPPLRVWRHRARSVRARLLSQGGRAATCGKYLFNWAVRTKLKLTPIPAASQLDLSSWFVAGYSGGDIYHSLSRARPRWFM

Row | SMILES | IC50 ([1]; Table 1) [µM] | EC50 (HCV replicon cells; Table 1) [µM] | IC50 ([1]; Table 2) [µM] | EC50 (HCV replicon cells; Table 2) [µM]
1 | CNC(=O)c1c(-c2ccc(F)cc2)nn2cc(N)ccc12 | > 10 | > 10 |  | 
2 | CCN(c1cn2nc(-c3ccc(F)cc3)c(C(=O)NC)c2cc1-c1cc(C(=O)NC2(c3ccc(F)cc3)CC2)ccc1C)S(C)(=O)=O | 0.002 to 0.25 | 0.002 to 0.25 |  | 
3 | CNC(=O)c1c(-c2ccc(F)cc2)nn2ccc(-c3cc(C(=O)NC4(c5ccccn5)CC4)ccc3C)c(F)c12 [drawing 177] |  |  | 0.005 | 0.00715
4 | CNC(=O)c1c(-c2ccc(F)cc2)nn2ccc(-c3cc(C(=O)NC4(c5ccccn5)CC4)ccc3C)cc12 [drawing 179] |  |  | 0.00515 | 0.01
5 | CNC(=O)c1c(-c2ccc(F)cc2)nn2ccc(-c3cc(C(=O)NC4(c5ccccc5)CC4)ccc3C)cc12 [drawing 87] | 0.002 to 0.25 | 0.002 to 0.25 |  | 
6 | CNC(=O)c1c(-c2ccc(F)cc2)nn2ccc(-c3cc(C(=O)NC4(c5cc(C)on5)CC4)c(OC)cc3C)c(F)c12 | 0.002 to 0.25 | 0.002 to 0.25 |  | 
7 | CNC(=O)c1c(-c2ccc(F)cc2)nn2cc(N(CC3CC3)S(C)(=O)=O)c(-c3cccc(C(=O)NC(C)(C)c4ccccc4)c3)cc12 | 0.002 to 0.25 | 0.002 to 0.25 |  | 
8 | CNC(=O)c1c(-c2ccc(F)cc2)nn2cc(F)c(-c3cc(C(=O)NC4(c5ccccc5)CC4)ccc3C)cc12 | 0.002 to 0.25 | 0.002 to 0.25 |  | 
9 | CNC(=O)c1c(-c2ccc(F)cc2)sc2ccc(-c3cccc(C(=O)NC4(c5ccccc5)CCC4)c3)cc12 | 0.002 to 0.25 | 0.002 to 0.25 |  | 
10 | CNC(=O)c1c(-c2ccc(F)cc2)nn2cc(NC(=O)C(C)(C)C)c(C3CC3)cc12 | > 10 | > 10 |  | 
11 | CNC(=O)c1c(-c2ccc(F)cc2)nn2cc(-c3ccc(OC)cc3)ccc12 | > 10 | > 10 |  | 
12 | CNC(=O)c1c(-c2ccc(F)cc2)nn2ccc(NCc3ccccc3)cc12 | > 10 | > 10 |  | 
13 | CNC(=O)c1c(-c2ccc(F)cc2)nn2ccc(-c3cc(C(=O)NC4(c5ccccn5)CC4)ccc3C)cc12 [drawing 88] | 0.002 to 0.25 | 0.002 to 0.25 |  | 
14 | CNC(=O)c1c(-c2ccc(F)cc2)nn2ccc(N)cc12 | > 10 | > 10 |  | 
15 | CNC(=O)c1c(-c2ccc(F)cc2)nn2ccc(NS(=O)(=O)c3ccc(OC(F)(F)F)cc3)cc12 | > 10 | > 10 |  | 
16 | CNC(=O)c1c(-c2ccc(F)cc2)nn2cc(NS(C)(=O)=O)c(-c3cccc(C(=O)NC(C)(C)c4ccccc4)c3)cc12 | 0.002 to 0.25 | 1 to 10 |  | 
17 | CNC(=O)c1c(-c2ccc(F)cc2)n(C)c2ccc(-c3cccc(C(=O)NC(C)(C)c4ccccc4)c3)cc12 | > 10 | > 10 |  | 

Row | SMILES | IC50 ([1]; Table 1) [µM] | EC50 (HCV replicon cells; Table 1) [µM] | IC50 ([1]; Table 2) [µM] | EC50 (HCV replicon cells; Table 2) [µM]
18 | CNC(=O)c1c(-c2ccc(F)cc2)oc2cnc(-c3cc(C(=O)NC4(c5ccccn5)CC4)ccc3C)cc12 | 0.002 to 0.25 | 0.002 to 0.25 |  | 
19 | CNC(=O)c1c(-c2ccc(F)cc2)nn2ccc(-n3cc(C(=O)NC(C)(C)c4ccccc4)ccc3=O)cc12 | 0.002 to 0.25 | 0.25 to 1 |  | 
20 | CNC(=O)c1c(-c2ccc(F)cc2)nn2ccc(-c3cccc(C(=O)NC4(c5ccccc5)CCC4)c3)cc12 | 0.002 to 0.25 | 0.002 to 0.25 |  | 
21 | CNC(=O)c1c(-c2ccc(F)cc2)nn2ccc(NC(=O)c3ccccc3OC)cc12 | > 10 | > 10 |  | 
22 | CCN(c1cn2nc(-c3ccc(F)cc3)c(C(=O)NC)c2cc1-c1cccc(C(=O)NC(C)(C)c2ccccc2)c1)S(C)(=O)=O [drawing 176] |  |  | 0.0096 | 0.00598
23 | CNC(=O)c1c(-c2ccc(F)cc2)nn2ccc(-c3cc(C(=O)NC(C)(C)C)ccc3OC)cc12 | 0.002 to 0.25 | 0.25 to 1 |  | 
24 | CNC(=O)c1c(-c2ccc(F)cc2)nn2cc(N(CCO)S(C)(=O)=O)c(-c3cccc(C(=O)NC4(c5ccccn5)CC4)c3)cc12 [drawing 182] |  |  | 0.06 | 1.56
25 | CCN(c1cn2nc(-c3ccc(F)cc3)c(C(=O)NC)c2cc1-c1cc(C(=O)NC2(c3ccccn3)CC2)ccc1C)S(C)(=O)=O | 0.002 to 0.25 | 0.002 to 0.25 |  | 
26 | CCN(c1cn2nc(-c3ccc(F)cc3)c(C(=O)NC)c2cc1-c1cccc(C(=O)NC2(c3ccccn3)CC2)c1)S(C)(=O)=O | 0.002 to 0.25 | 0.002 to 0.25 |  | 
27 | CNC(=O)c1c(-c2ccc(F)cc2)nn2cc(NC(=O)OC(C)(C)C)ccc12 | > 10 | > 10 |  | 
28 | CNC(=O)c1c(-c2ccccc2)nn2cc(-c3ccccc3OC)ccc12 | 1 to 10 | 1 to 10 |  | 
29 | CNC(=O)c1c(-c2ccccc2)nn2cc(-c3ccccc3CO)ccc12 | > 10 | > 10 |  | 
30 | CNC(=O)c1c(-c2ccc(F)cc2)nn2ccc(-c3cc(C(=O)NC4(c5ccccc5)CC4)cc(F)c3C)c(F)c12 [drawing 175] |  |  | 0.03 | 0.00432
31 | CNC(=O)c1c(-c2ccc(F)cc2)nn2cc(N(CCOC)S(C)(=O)=O)c(-c3cccc(C(=O)NC(C)(C)c4ccccc4)c3)cc12 | 0.002 to 0.25 | 0.002 to 0.25 |  | 
32 | CNC(=O)c1c(-c2ccc(F)cc2)nn2ccc(-c3cc(C(=O)NC4(c5ccccc5F)CC4)c(OC)cc3C)c(F)c12 | 0.002 to 0.25 | 0.25 to 1 |  | 
33 | CNC(=O)c1c(-c2ccc(F)cc2)oc2ncc(-c3cc(C(=O)NC4(c5ncccn5)CC4)ccc3C)cc12 | 0.002 to 0.25 | 0.002 to 0.25 |  | 
